Assay: mn = molality of the nth substance listed, in mol/kg
Settings: 100 kPa, Liquid; for speed of sound: Frequency=3 MHz, Single path-length method; for mass density: Vibrating tube method

OC[C@H]1O[C@@](CO)(O[C@H]2O[C@H](CO)[C@@H](O)[C@H](O)[C@H]2O)[C@@H](O)[C@@H]1O [D-sucrose] + O
Settings | mass density, 288.15 K [kg/m3] | mass density, 298.15 K [kg/m3] | mass density, 308.15 K [kg/m3] | mass density, 318.15 K [kg/m3] | speed of sound, 288.15 K [m/s] | speed of sound, 298.15 K [m/s] | speed of sound, 308.15 K [m/s] | speed of sound, 318.15 K [m/s]
m1 = 0.1002 | 1012.01 | 1009.81 | 1006.68 | 1002.77 | 1476.3 | 1506 | 1528.2 | 1544
m1 = 0.2007 | 1024.37 | 1022.04 | 1018.8 | 1014.82 | 1486.2 | 1515 | 1536.5 | 1551.6
m1 = 0.3011 | 1036.19 | 1033.73 | 1030.39 | 1026.34 | 1496 | 1524 | 1544.7 | 1559.1
m1 = 0.4034 | 1047.72 | 1045.13 | 1041.69 | 1037.58 | 1506 | 1533.2 | 1553.1 | 1566.7
m1 = 0.4996 | 1058.12 | 1055.43 | 1051.89 | 1047.73 | 1515.3 | 1541.7 | 1561 | 1574.3
m1 = 0.6018 | 1068.73 | 1065.92 | 1062.29 | 1058.07 | 1525.2 | 1550.6 | 1569.3 | 1581.7
m1 = 0.7022 | 1078.71 | 1075.81 | 1072.09 | 1067.82 | 1534.9 | 1559.3 | 1577.2 | 1589.3
m1 = 0.7978 | 1087.87 | 1084.86 | 1081.07 | 1076.72 | 1543.9 | 1567.4 | 1584.8 | 1596.1
m1 = 0.8955 | 1096.86 | 1093.77 | 1089.9 | 1085.49 | 1552.9 | 1575.6 | 1592.3 | 1603.2
m1 = 0.9969 | 1105.83 | 1102.65 | 1098.71 | 1094.23 | 1562.2 | 1583.8 | 1600.1 | 1611
